Experimental data reported in PubChem BioAssay AID330 (DTP/NCI, 2004).
“And” between values parts separate entries of the source, which are not always exact repeats. Identical values can stand only once. Inconclusive results and toxic doses are left out. Rule for the calls: active = survival T/C of 150% or more; inactive = T/C below 125% in these data.

Tested on: P388 leukemia ip, CD2F1 mice, survival T/C
Assay: NCI In Vivo Anticancer Drug Screen. Data for tumor model P388 Leukemia (intraperitoneal) in CD2F1 (CDF1) mice
Settings: endpoint: median survival time, higher = longer survival
Summary of the method: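 Mice carrying the transplanted tumor received test compound or vehicle. Survival was recorded in each group, and the value is the treated-group measurement divided by that of the vehicle-treated control group.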

[1] = dose: 60.0 mg/kg/injection, schedule: Q01DX005 (ip), vehicle: saline with Tween-80
[2] = dose: 50.0 mg/kg/injection, schedule: Q01DX009 (ip), vehicle: saline
[3] = dose: 100.0 mg/kg/injection, schedule: Q01DX009 (ip), vehicle: saline
[4] = dose: 200.0 mg/kg/injection, schedule: Q01DX009 (ip), vehicle: saline
[5] = dose: 200.0 mg/kg/injection, schedule: Q01DX005 (ip), vehicle: Klucel (hydroxypropylcellulose) (HPC)
[6] = dose: 100.0 mg/kg/injection, schedule: Q01DX001 (ip), vehicle: saline with Tween-80
[7] = dose: 200.0 mg/kg/injection, schedule: Q01DX001 (ip), vehicle: saline with Tween-80
[8] = dose: 400.0 mg/kg/injection, schedule: Q01DX001 (ip), vehicle: saline with Tween-80
[9] = dose: 1.56 mg/kg/injection, schedule: Q01DX009 (ip), vehicle: saline with Tween-80
[10] = dose: 3.13 mg/kg/injection, schedule: Q01DX009 (ip), vehicle: saline with Tween-80
[11] = dose: 6.25 mg/kg/injection, schedule: Q01DX009 (ip), vehicle: saline with Tween-80
[12] = dose: 12.5 mg/kg/injection, schedule: Q01DX009 (ip), vehicle: saline with Tween-80
[13] = dose: 50.0 mg/kg/injection, schedule: Q01DX009 (ip), vehicle: Klucel (hydroxypropylcellulose) (HPC)
[14] = dose: 100.0 mg/kg/injection, schedule: Q01DX009 (ip), vehicle: Klucel (hydroxypropylcellulose) (HPC)
[15] = dose: 50.0 mg/kg/injection, schedule: Q01DX009 (ip), vehicle: saline with Tween-80
[16] = dose: 60.0 mg/kg/injection, schedule: Q01DX005 (ip), vehicle: Klucel (hydroxypropylcellulose) (HPC)

Measured: T/C

COC(=O)C(Cc1cnc[nH]1)NC(=O)C(Cc1c[nH]c2ccccc12)NC(=O)OC(C)(C)C (stereo not drawn)
inactive: dose: 12.5 mg/kg/injection, schedule: Q01DX009 (ip), vehicle: other 100 % of control | dose: 25.0 mg/kg/injection, schedule: Q01DX009 (ip), vehicle: other 96 % of control | dose: 50.0 mg/kg/injection, schedule: Q01DX009 (ip), vehicle: other 96 % of control | dose: 100.0 mg/kg/injection, schedule: Q01DX009 (ip), vehicle: other 95 % of control | dose: 200.0 mg/kg/injection, schedule: Q01DX009 (ip), vehicle: other 91 % of control

CCCCN1CCNC1=S
inactive: dose: 50.0 mg/kg/injection, schedule: Q01DX005 (ip), vehicle: saline with Tween-80 100 % of control | dose: 100.0 mg/kg/injection, schedule: Q01DX005 (ip), vehicle: saline with Tween-80 102 % of control | dose: 200.0 mg/kg/injection, schedule: Q01DX005 (ip), vehicle: saline with Tween-80 102 % of control

CN(C)CN1C(=O)CC(c2ccccc2)C1=O (stereo not drawn)
inactive: dose: 50.0 mg/kg/injection, schedule: Q01DX005 (ip), vehicle: saline 110 % of control | dose: 100.0 mg/kg/injection, schedule: Q01DX005 (ip), vehicle: saline 107 % of control | dose: 200.0 mg/kg/injection, schedule: Q01DX005 (ip), vehicle: saline 115 % of control

CC(=O)OCCOCNC(=S)N/N=C/c1ccccn1
inactive: [1] 115 % of control

CCc1nc(N)nc(N)c1-c1ccc(NC)c(N)c1
inactive: dose: 100.0 mg/kg/injection, schedule: Q04DX002 (ip), vehicle: Klucel (hydroxypropylcellulose) (HPC) 96 % of control | dose: 200.0 mg/kg/injection, schedule: Q04DX002 (ip), vehicle: Klucel (hydroxypropylcellulose) (HPC) 105 % of control

O=CNCC(=O)O
inactive: [2] 101 % of control | [3] 97 % of control | [4] 99 % of control

COc1ccc(NN=O)cn1
inactive: dose: 1.56 mg/kg/injection, schedule: Q01DX009 (ip), vehicle: water 100 % of control | dose: 3.12 mg/kg/injection, schedule: Q01DX009 (ip), vehicle: water 100 % of control and 105 % of control | dose: 6.25 mg/kg/injection, schedule: Q01DX009 (ip), vehicle: water 99 % of control and 106 % of control | dose: 12.5 mg/kg/injection, schedule: Q01DX009 (ip), vehicle: water 106 % of control and 107 % of control and 98 % of control | dose: 25.0 mg/kg/injection, schedule: Q01DX009 (ip), vehicle: water 115 % of control and 122 % of control and 97 % of control | dose: 50.0 mg/kg/injection, schedule: Q01DX009 (ip), vehicle: water 114 % of control and 122 % of control | dose: 100.0 mg/kg/injection, schedule: Q01DX009 (ip), vehicle: water 122 % of control | dose: 200.0 mg/kg/injection, schedule: Q01DX009 (ip), vehicle: water 121 % of control

O=C(Nc1ccc(S(=O)(=O)Nc2nccs2)cc1)c1cccnc1Nc1cccc(Cl)c1
inactive: [1] 111 % of control | dose: 120.0 mg/kg/injection, schedule: Q01DX005 (ip), vehicle: saline with Tween-80 113 % of control | dose: 240.0 mg/kg/injection, schedule: Q01DX005 (ip), vehicle: saline with Tween-80 106 % of control

CC1=CC(C)(C(Cl)(Cl)Cl)C(C)=CC1=O (stereo not drawn)
inactive: dose: 50.0 mg/kg/injection, schedule: Q01DX005 (ip), vehicle: Klucel (hydroxypropylcellulose) (HPC) 98 % of control | dose: 100.0 mg/kg/injection, schedule: Q01DX005 (ip), vehicle: Klucel (hydroxypropylcellulose) (HPC) 99 % of control | [5] 101 % of control

O=C(O)c1cccc(C(=O)O)c1Sc1ccccc1
inactive: [6] 103 % of control | [7] 100 % of control | [8] 94 % of control

O=C(c1cc(F)ccc1Nc1ccccc1)N1CCOCC1
inactive: dose: 12.5 mg/kg/injection, schedule: Q01DX009 (ip), vehicle: saline 98 % of control | dose: 25.0 mg/kg/injection, schedule: Q01DX009 (ip), vehicle: saline 100 % of control | [2] 98 % of control and 109 % of control

Cc1coc2c1C(OC(=O)C(C)C)C1(C)C(C)CCC(O)C1C2=O (stereo not drawn)
inactive: [9] 100 % of control | [10] 96 % of control | [11] 93 % of control | dose: 12.5 mg/kg/injection, schedule: Q01DX009 (ip), vehicle: Klucel (hydroxypropylcellulose) (HPC) 94 % of control | [12] 109 % of control | [13] 97 % of control | [14] 114 % of control

NC(N)=N/N=C1/c2ccccc2/C(=N/N=C(N)N)C1[N+](=O)[O-]
inactive: dose: 25.0 mg/kg/injection, schedule: Q01DX001 (ip), vehicle: Klucel (hydroxypropylcellulose) (HPC) 112 % of control | dose: 50.0 mg/kg/injection, schedule: Q01DX001 (ip), vehicle: Klucel (hydroxypropylcellulose) (HPC) 114 % of control | dose: 100.0 mg/kg/injection, schedule: Q01DX001 (ip), vehicle: Klucel (hydroxypropylcellulose) (HPC) 114 % of control | dose: 200.0 mg/kg/injection, schedule: Q01DX001 (ip), vehicle: Klucel (hydroxypropylcellulose) (HPC) 113 % of control | dose: 400.0 mg/kg/injection, schedule: Q01DX001 (ip), vehicle: Klucel (hydroxypropylcellulose) (HPC) 111 % of control

O=C(NC1CCCCC1)ON1C(=O)C2C3C=CC(C3)C2C1=O (stereo not drawn)
inactive: dose: 3.12 mg/kg/injection, schedule: Q01DX009 (ip), vehicle: saline with Tween-80 101 % of control and 98 % of control | [11] 106 % of control and 110 % of control and 113 % of control | [12] 106 % of control and 110 % of control | dose: 25.0 mg/kg/injection, schedule: Q01DX009 (ip), vehicle: saline with Tween-80 113 % of control and 117 % of control and 98 % of control | [15] 119 % of control

CN1c2ccccc2C(C)(C)C12C=Cc1cc(O)ccc1O2 (stereo not drawn)
inactive: [2] 93 % of control | [3] 96 % of control | [4] 113 % of control

CC(C)(C)c1cc(C(C)(C)C)c(O)c(Br)c1O
inactive: [13] 101 % of control | [14] 102 % of control | dose: 200.0 mg/kg/injection, schedule: Q01DX009 (ip), vehicle: Klucel (hydroxypropylcellulose) (HPC) 101 % of control

CCOC1NC(=S)N(C2CCCCC2)C1(C)C (stereo not drawn)
inactive: dose: 50.0 mg/kg/injection, schedule: Q01DX009 (ip), vehicle: suspension in saline 93 % of control | dose: 100.0 mg/kg/injection, schedule: Q01DX009 (ip), vehicle: suspension in saline 92 % of control | dose: 200.0 mg/kg/injection, schedule: Q01DX009 (ip), vehicle: suspension in saline 97 % of control

CC(=O)c1ccc2c(c1)c1c(C)c3c[n+](C)ccc3c(C)c1n2C
inactive: [7] 115 % of control

Cc1ccc2c(c1)NC(c1cccc(N=Cc3cc(Cl)cc(Cl)c3O)c1)c1cccn1-2 (stereo not drawn)
inactive: [15] 86 % of control | dose: 100.0 mg/kg/injection, schedule: Q01DX009 (ip), vehicle: saline with Tween-80 91 % of control | dose: 200.0 mg/kg/injection, schedule: Q01DX009 (ip), vehicle: saline with Tween-80 96 % of control

COc1ccc2nc(-n3[nH]c(C)c(-c4cc(C)nn4-c4ccccc4)c3=O)cc(C)c2c1
inactive: [6] 98 % of control | [7] 91 % of control

COc1ccc2ncc(CO)c(CO)c2c1
inactive: [5] 100 % of control

CN(C)CC1=c2ccccc2=N/C1=C\c1ccc(N(C)C)cc1
inactive: [6] 89 % of control | [7] 88 % of control | [8] 92 % of control

CN(C)CC/C([O-])=N/[n+]1c2c(nc3ccccc31)-c1cccc3cccc-2c13
inactive: dose: 25.0 mg/kg/injection, schedule: Q01DX009 (ip), vehicle: Klucel (hydroxypropylcellulose) (HPC) 109 % of control | [13] 111 % of control | [14] 116 % of control

S=C(S)N1CCCC1
inactive: [2] 100 % of control | [3] 93 % of control

O=C1Nc2ccccc2C1=Nc1ccc2[nH]c3ccccc3c2c1
inactive: [16] 92 % of control | dose: 120.0 mg/kg/injection, schedule: Q01DX005 (ip), vehicle: Klucel (hydroxypropylcellulose) (HPC) 93 % of control | dose: 240.0 mg/kg/injection, schedule: Q01DX005 (ip), vehicle: Klucel (hydroxypropylcellulose) (HPC) 88 % of control

[N-]=[N+]=Nc1cc(Cl)nnc1-c1ccccc1
inactive: dose: 15.0 mg/kg/injection, schedule: Q01DX005 (ip), vehicle: Klucel (hydroxypropylcellulose) (HPC) 107 % of control | dose: 30.0 mg/kg/injection, schedule: Q01DX005 (ip), vehicle: Klucel (hydroxypropylcellulose) (HPC) 105 % of control | [16] 100 % of control

Nc1ncnc2nc(CO)[nH]c12
inactive: dose: 0.78 mg/kg/injection, schedule: Q01DX009 (ip), vehicle: saline with Tween-80 100 % of control | [9] 97 % of control | [10] 93 % of control | [11] 91 % of control
